Results on 48 compounds are retold here after patent publication US20110086886A2, “INSECTICIDAL ISOXAZOLINES” (Bayer CropScience AG, priority 2006, published 2011).

The subject of test [1] is Spodoptera litura larvae. The test is described as follows: Test for Spodoptera litura larvae (leaf dip). As to conditions: effective component concentration of 500 ppm, 3rd-instar larvae on dipped sweet potato leaves, after 7 days; for pest or weed control at 500 ppm: foliar, 168 h, read-out: insecticidal ratio. Format: in vivo. As to the method:
(§1) In order to obtain a preparation of a proper active compound, 1 part by weight of an active compound was mixed with the stated amounts of solvent and emulsifier and the mixture was diluted to a specified concentration with water.
The leaves of sweat potatoes were dipped in the test solution diluted to a specified concentration with water. After these leaves were dried in air to remove the chemical solution, they were placed in a Petri dish of 9 cm in diameter, in which 10 Spodoptera litura larvae of the 3rd-instar were set free. The Petri dish was placed in a thermostatic chamber kept at 25° C. and the leaves of sweat potatoes were added after 2 days and 4 days, to examine the number of dead larvae after 7 days, thereby calculating the insecticidal ratio of the chemical solution.
In this test, an average of the results in two Petri dishes in one section was calculated.

The subject of test [2] is Aulacophora femoralis. The test is described as follows: Test for Aulacophora femoralis (spray test). The class given is in vivo. Conditions: effective component concentration of 500 ppm; 2nd-instar, dipped cucumber leaves; after 7 days. As to the method:
as §1
The leaves of cucumbers were dipped in the aqueous solution diluted to a specified concentration with water. After the chemical solution was dried in air, these leaves were placed in a plastic cup, in which sterilized black soil was placed. 5 Aulacophora femoralis of the 2nd-instar were set free in the soil, to examine the number of dead insects after 7 days, thereby calculating the insecticidal ratio of the chemical solution.

As to “1-(4-{5-[3,5-bis(trifluoromethyl)phenyl]-5-(trifluoromethyl-4,5-dihydroisoxazol-3-yl}-2-nitrophenyl)-2H-tetrazole [Compound 178]”, in test [1], the insecticidal ratio came to 100%.

Take `O=[N+]([O-])c1cc(C2=NOC(c3cccc(Cl)c3)(C(F)(F)F)C2)ccc1-n1cncn1` (racemic) [Compound 90]: the insecticidal ratio in test [1] and in test [2] was 100% each time.

As for `FC(F)(F)C1(c2cc(Cl)cc(Cl)c2)CC(c2ccc(-n3cncn3)cc2)=NO1` (racemic) [Compound 91], the insecticidal ratio in test [1] and in test [2] was 100% in each case.

`Fc1cc(C2=NOC(c3cc(Cl)cc(Cl)c3)(C(F)(F)F)C2)ccc1-n1cncn1` (racemic) [Compound 93]: the insecticidal ratio in test [1] stood at 100%.

As to `FC(F)(F)C1(c2cc(Cl)cc(Cl)c2)CC(c2ccc(-n3cncn3)c(Cl)c2)=NO1` (racemic) [Compound 94], the insecticidal ratio in test [1] and in test [2] was 100% throughout.

Consider `FC(F)(F)C1(c2cc(Cl)cc(Cl)c2)CC(c2ccc(-n3cncn3)cc2Cl)=NO1` (racemic) [Compound 96], for which the insecticidal ratio in test [1] was 100%.

On to `FC(F)(F)C1(c2cc(Cl)cc(Cl)c2)CC(c2ccc(-n3cncn3)c(Br)c2)=NO1` (racemic) [Compound 97], for which the insecticidal ratio in test [1] and in test [2] was 100% each time.

Consider `FC(F)(F)C1(c2cc(Cl)cc(Cl)c2)CC(c2ccc(-n3cncn3)c(I)c2)=NO1` (racemic) [Compound 98], for which the insecticidal ratio in test [1] and in test [2] was 100% in each case.

On to `Cc1cc(C2=NOC(c3cc(Cl)cc(Cl)c3)(C(F)(F)F)C2)ccc1-n1cncn1` (racemic) [Compound 99], for which the insecticidal ratio in test [1] and in test [2] was 100% throughout.

Regarding `FC(F)(F)c1cc(C2=NOC(c3cc(Cl)cc(Cl)c3)(C(F)(F)F)C2)ccc1-n1cncn1` (racemic) [Compound 100], the insecticidal ratio in test [1] and in test [2] was 100% in each case.

Consider `COc1cc(C2=NOC(c3cc(Cl)cc(Cl)c3)(C(F)(F)F)C2)ccc1-n1cncn1` (racemic) [Compound 103], for which the insecticidal ratio in test [1] and in test [2] was 100% in each case.

For `CCC(=O)Nc1cc(C2=NOC(c3cc(Cl)cc(Cl)c3)(C(F)(F)F)C2)ccc1-n1cncn1` (racemic) [Compound 107], the insecticidal ratio in test [1] and in test [2] was 100% in each case.

For the compound `COC(=O)Nc1cc(C2=NOC(c3cc(Cl)cc(Cl)c3)(C(F)(F)F)C2)ccc1-n1cncn1` (racemic) [Compound 109], the insecticidal ratio in test [1] and in test [2] was 100% each time.

Take `FC(F)(F)C1(c2cc(Cl)cc(Cl)c2)CC(c2ccc(-n3cncn3)nc2)=NO1` (racemic) [Compound 114]: the insecticidal ratio in test [1] and in test [2] was 100% throughout.

For the compound `FC(F)(F)c1cccc(C2(C(F)(F)F)CC(c3ccc(-n4cncn4)cc3)=NO2)c1` (racemic) [Compound 122], the insecticidal ratio in test [1] and in test [2] was 100% each time.

On to `FC(F)(F)c1ccc(C2(C(F)(F)F)CC(c3ccc(-n4cncn4)cc3)=NO2)cc1` (racemic) [Compound 123], for which the insecticidal ratio in test [1] was determined as 100%.

As to `N#Cc1cc(C2=NOC(c3cccc(C(F)(F)F)c3)(C(F)(F)F)C2)ccc1-n1cncn1` (racemic) [Compound 126], the insecticidal ratio in test [1] and in test [2] was 100% in each case.

Take `O=[N+]([O-])c1cc(C2=NOC(c3cccc(C(F)(F)F)c3)(C(F)(F)F)C2)ccc1-n1cncn1` (racemic) [Compound 127]: the insecticidal ratio in test [1] and in test [2] was 100% throughout.

In the case of `FC(F)(F)c1cc(C(F)(F)F)cc(C2(C(F)(F)F)CC(c3ccc(-n4cncn4)c(Cl)c3)=NO2)c1` (racemic) [Compound 133], the insecticidal ratio in test [1] is listed as 100%.

For the compound `O=[N+]([O-])c1cc(C2=NOC(c3cccc(Cl)c3)(C(F)(F)F)C2)ccc1-n1cnnn1` (racemic) [Compound 147], in test [2], the insecticidal ratio came to 100%.

Consider `FC(F)(F)C1(c2cc(Cl)cc(Cl)c2)CC(c2ccc(-n3cccn3)cc2)=NO1` (centres unmarked) [Compound 2], for which the insecticidal ratio in test [1] is on record as 100%.

Turning to `FC(F)(F)C1(c2cc(Cl)cc(Cl)c2)CC(c2ccc(-n3cc(Cl)cn3)cc2)=NO1` (centres unmarked) [Compound 4], the insecticidal ratio in test [1] came out at 100%.

As for `FC(F)(F)C1(c2cc(Cl)cc(Cl)c2)CC(c2ccc(-n3cc(Br)cn3)cc2)=NO1` (centres unmarked) [Compound 5], the insecticidal ratio in test [1] came out at 100%.

For `N#Cc1cnn(-c2ccc(C3=NOC(c4cc(Cl)cc(Cl)c4)(C(F)(F)F)C3)cc2)c1` (centres unmarked) [Compound 7], the insecticidal ratio in test [1] was found to be 100%.

Regarding `FC(F)(F)C1(c2cc(Cl)cc(Cl)c2)CC(c2ccc(-n3cccn3)c(Cl)c2)=NO1` (centres unmarked) [Compound 8], the insecticidal ratio in test [1] is 100%.

For `O=[N+]([O-])c1cnn(-c2ccc(C3=NOC(c4cc(Cl)cc(Cl)c4)(C(F)(F)F)C3)cc2Br)c1` (centres unmarked) [Compound 12], in test [1], the insecticidal ratio turned out to be 100%.

`N#Cc1cc(C2=NOC(c3cc(Cl)cc(Cl)c3)(C(F)(F)F)C2)ccc1-n1cccn1` (centres unmarked) [Compound 13, 5-[5-(3,5-dichlorophenyl)-5-(trifluoromethyl)-4,5-dihydroisoxazol-3-yl]-2-(1H-pyrazol-1-yl)benzonitrile]: in test [1], the pest or weed control at 500 ppm amounted to 100%.

Regarding `N#Cc1cc(C2=NOC(c3cc(Cl)cc(Cl)c3)(C(F)(F)F)C2)ccc1-n1cc(F)cn1` (centres unmarked) [Compound 16], the insecticidal ratio in test [1] amounted to 100%.

Consider `N#Cc1cc(C2=NOC(c3cc(Cl)cc(Cl)c3)(C(F)(F)F)C2)ccc1-n1cc(Br)cn1` (centres unmarked) [Compound 18], for which the insecticidal ratio in test [1] was found to be 100%.

As to `N#Cc1cc(C2=NOC(c3cc(Cl)cc(Cl)c3)(C(F)(F)F)C2)ccc1-n1cc(I)cn1` (centres unmarked) [Compound 19], the insecticidal ratio in test [1] was 100%.

`O=[N+]([O-])c1cc(C2=NOC(c3cc(Cl)cc(Cl)c3)(C(F)(F)F)C2)ccc1-n1cccn1` (centres unmarked) [Compound 23]: the insecticidal ratio in test [1] was found to be 100%.

For `Cc1cnn(-c2ccc(C3=NOC(c4cc(Cl)cc(Cl)c4)(C(F)(F)F)C3)cc2[N+](=O)[O-])c1` (centres unmarked) [Compound 24], the insecticidal ratio in test [1] is on record as 100%.

In the case of `O=[N+]([O-])c1cc(C2=NOC(c3cc(Cl)cc(Cl)c3)(C(F)(F)F)C2)ccc1-n1cc(Cl)cn1` (centres unmarked) [Compound 26], the insecticidal ratio in test [1] was 100%.

As for `O=[N+]([O-])c1cc(C2=NOC(c3cc(Cl)cc(Cl)c3)(C(F)(F)F)C2)ccc1-n1cc(Br)cn1` (centres unmarked) [Compound 27], the insecticidal ratio in test [1] worked out at 100%.

With `O=[N+]([O-])c1cc(C2=NOC(c3cc(Cl)cc(Cl)c3)(C(F)(F)F)C2)ccc1-n1cc(I)cn1` (centres unmarked) [Compound 28], the insecticidal ratio in test [1] was found to be 100%.

Consider `O=[N+]([O-])c1cc(C2=NOC(c3cc(Cl)cc(Cl)c3)(C(F)(F)F)C2)ccc1-n1cc(C(F)(F)F)cn1` (centres unmarked) [Compound 29], for which the insecticidal ratio in test [1] was determined as 100%.

Regarding `N#Cc1cc(C2=NOC(c3cc(C(F)(F)F)cc(C(F)(F)F)c3)(C(F)(F)F)C2)ccc1-n1cc([N+](=O)[O-])cn1` (centres unmarked) [Compound 47], the insecticidal ratio in test [1] amounted to 100%.

As for `FC(F)(F)C1(c2cc(Cl)cc(Cl)c2)CC(c2ccc(-n3ccnc3)cc2)=NO1` (centres unmarked) [Compound 48], the insecticidal ratio in test [1] worked out at 100%.

In the case of `O=[N+]([O-])c1cc(C2=NOC(c3cc(Cl)cc(Cl)c3)(C(F)(F)F)C2)ccc1-n1ccnc1` (centres unmarked) [Compound 52], the insecticidal ratio in test [1] is on record as 100%.

As to `O=[N+]([O-])c1cc(C2=NOC(c3cc(Cl)cc(Cl)c3)(C(F)(F)F)C2)ccc1-n1ccnn1` (centres unmarked) [Compound 64], the insecticidal ratio in test [2] was 100%.

With `O=[N+]([O-])c1cc(C2=NOC(c3cc(Cl)cc(Cl)c3)(C(F)(F)F)C2)ccc1-n1nccn1` (centres unmarked) [Compound 72], the insecticidal ratio in test [1] stood at 100%.

Take `N#Cc1cc(C2=NOC(c3ccccc3)(C(F)(F)F)C2)ccc1-n1cncn1` (centres unmarked) [Compound 80]: the insecticidal ratio in test [2] worked out at 100%.

For `O=[N+]([O-])c1cc(C2=NOC(c3cc(F)cc(F)c3)(C(F)(F)F)C2)ccc1-n1cncn1` (centres unmarked) [Compound 85], the insecticidal ratio in test [2] is 100%.

For `Nc1cc(C2=NOC(c3cc(Cl)cc(Cl)c3)(C(F)(F)F)C2)ccc1-n1cncn1` (centres unmarked) [Compound 105, 5-[5-(3,5-dichlorophenyl)-5-(trifluoromethyl)-4,5-dihydroisoxazol-3-yl]-2-(1H-1,2,4-triazol-1-yl)aniline], the pest or weed control at 500 ppm in test [1] stood at 100%.

On to `FC(F)(F)C1(c2cc(Cl)cc(Cl)c2)CC(c2ccc(-n3cnnc3)cc2)=NO1` (centres unmarked) [Compound 141, 4-{4-[5-(3,5-dichlorophenyl)-5-(trifluoromethyl)-4,5-dihydroisoxazol-3-yl]phenyl}-4H-1,3,4-triazole], for which the pest or weed control at 500 ppm in test [1] was determined as 100%.

`FC(F)(F)C1(c2cc(Cl)cc(Cl)c2)CC(c2ccc(-n3cnnn3)c(I)c2)=NO1` (centres unmarked) [Compound 152]: the insecticidal ratio in test [1] turned out to be 100%.

Consider `FC(F)(F)c1cc(C(F)(F)F)cc(C2(C(F)(F)F)CC(c3ccc(-n4cnnn4)cc3)=NO2)c1` (centres unmarked) [Compound 162], for which the insecticidal ratio in test [1] is recorded as 100%.

Regarding `O=[N+]([O-])c1cc(C2=NOC(c3cccc(C(F)(F)F)c3)(C(F)(F)F)C2)ccc1-n1ncnn1` (centres unmarked) [Compound 176], the insecticidal ratio in test [1] is recorded as 100%.
